According to ChEMBL document CHEMBL1201862, “PubChem BioAssay data set” (2004):
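Growth conditions: 96-well plates. Treatment: test compound, 48 hours, 5 concentrations. Analysis: linear interpolation between bracketing concentrations; unreached endpoints set to highest concentration. Abbreviation: GI50, concentration required for 50% inhibition of growth.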 Calls of active or inactive are those of the source. Rule as the data show it: active = GI50 up to about 1.1 µM and inactive = higher.

Key:
Assay in all cases: DTP human tumour cell line panel, 48 h
786-0 = tested on: 786-0
A549 = tested on: A549
ACHN = tested on: ACHN
COLO 205 = tested on: COLO 205
DU-145 = tested on: DU-145
HCC 2998 = tested on: HCC 2998
IGROV-1 = tested on: IGROV-1
KM12 = tested on: KM12
M14 = tested on: M14
MCF7 = tested on: MCF7
MDA-MB-231 = tested on: MDA-MB-231
MDA-N = tested on: MDA-N
Malme-3M = tested on: Malme-3M
NCI-H460 = tested on: NCI-H460
RPMI-8226 = tested on: RPMI-8226
RXF 393 = tested on: RXF 393
SK-MEL-5 = tested on: SK-MEL-5
SN12C = tested on: SN12C
U-251 = tested on: U-251
UACC-62 = tested on: UACC-62

Measured: GI50

CC1=C(C)C2(C#N)C(=O)N3C(=NC(c4ccco4)NC3c3ccco3)C2(C#N)C(c2ccco2)N1 (stereo not given)
inactive: 786-0 > 100 µM | A549 > 100 µM | ACHN > 100 µM | COLO 205 > 100 µM | DU-145 > 100 µM | HCC 2998 > 100 µM | IGROV-1 > 100 µM | KM12 > 100 µM | M14 > 100 µM | MCF7 > 100 µM | MDA-MB-231 > 100 µM | MDA-N > 100 µM | Malme-3M > 100 µM | NCI-H460 > 100 µM | RPMI-8226 > 100 µM | RXF 393 > 100 µM | SK-MEL-5 > 100 µM | SN12C > 100 µM | U-251 > 100 µM | UACC-62 > 100 µM

CC(C)Cc1ccc(C(C)/C=C2\CCC(CN(C)C)C2=O)cc1 (stereo not given)
inactive: 786-0 2.96 µM | A549 27.7 µM | ACHN 19.4 µM | COLO 205 11.6 µM | DU-145 11.4 µM | HCC 2998 16.8 µM | IGROV-1 9.73 µM | KM12 5.27 µM | M14 12.9 µM | MCF7 4.43 µM | MDA-MB-231 2.28 µM | MDA-N 10.2 µM | Malme-3M 17 µM | NCI-H460 20 µM | RPMI-8226 1.56 µM | RXF 393 20.1 µM | SK-MEL-5 11.7 µM | SN12C 10 µM | U-251 16.7 µM | UACC-62 17.5 µM

C[C@@H](C[C@H]1OC(C)(C)O[C@@H]1C(C)(C)O)[C@H]1CC=C2[C@]3(C)[C@H](O)C[C@H]4C(C)(C)[C@H](O)CC[C@]4(C)[C@H]3CC[C@]21C
inactive: 786-0 9.73 µM | A549 5.86 µM | ACHN 8.15 µM | COLO 205 5.26 µM | DU-145 14.1 µM | HCC 2998 7.08 µM | IGROV-1 11.9 µM | KM12 6.21 µM | M14 9.29 µM | MCF7 2.12 µM | MDA-MB-231 7.93 µM | MDA-N 8.85 µM | Malme-3M 14 µM | NCI-H460 6.44 µM | RPMI-8226 4.03 µM | RXF 393 6.44 µM | SK-MEL-5 7.36 µM | SN12C 3.32 µM | U-251 6.84 µM | UACC-62 11.5 µM

COc1ccc(OC)c2c(Nc3ccc(S(=O)(=O)O)c4cc(S(=O)(=O)O)cc(S(=O)(=O)O)c34)cc(C)nc12
inactive: 786-0 > 100 µM | A549 > 100 µM | ACHN > 100 µM | COLO 205 > 100 µM | DU-145 > 100 µM | HCC 2998 10.8 µM | IGROV-1 > 100 µM | KM12 > 100 µM | M14 > 100 µM | MCF7 > 100 µM | MDA-MB-231 > 100 µM | MDA-N > 100 µM | Malme-3M > 100 µM | NCI-H460 > 100 µM | RPMI-8226 > 100 µM | RXF 393 > 100 µM | SK-MEL-5 > 100 µM | SN12C > 100 µM | U-251 > 100 µM | UACC-62 > 100 µM
